# Measurements: patent publication US6525001B1, “Substituted pyrimidine and pyridine herbicides” (Mid-American Commercialization Corporation, priority 1997, dated 2003)
# Key:
# Type in all cases: in vivo
# wild oat (Avena fatua) = experiment: Test B pre-/postemergence; parameters: key: 0 is no effect; 10 is complete control
# Summary of the method: (§1)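 Scored visually 0 (none) to 10 (complete control) against untreated plants after twelve to sixteen greenhouse days. Test chemicals, formulated in surfactant-containing non-phytotoxic solvent, applied to soil after planting and, separately, onto 1- to 4-leaf (2–18 cm) plants.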
# [1] = system: crabgrass (Digitaria sanguinalis); experiment: Test B pre-/postemergence; parameters: key: 0 is no effect; 10 is complete control
# Summary of the method: as §1
# [2] = system: blackgrass (Alopecurus myosuroides); experiment: Test B pre-/postemergence; parameters: key: 0 is no effect; 10 is complete control
# Summary of the method: as §1
# soybean (Glycine max) = experiment: Test B pre-/postemergence; parameters: key: 0 is no effect; 10 is complete control
# Summary of the method: as §1
# [3] = system: purple nutsedge (Cyperus rotundus); experiment: Test B pre-/postemergence; parameters: key: 0 is no effect; 10 is complete control
# Summary of the method: as §1
# [4] = system: purple nutsedge (Cyperus rotundus); experiment: Test C; parameters: key: 0 was no effect; 100 was complete control; details: PREEMERGENCE
# [5] = system: lambsquarters (Chenopodium album); experiment: Test C; parameters: key: 0 was no effect; 100 was complete control; details: PREEMERGENCE
# [6] = system: dallisgrass (Paspalum dilatatum); experiment: Test E pre-/postemergence/post directed; parameters: key: 0 is no effect; 100 is complete control; details: PREEMERGENCE
# Text: (§2) Seeds, tubers, or plant parts of alexandergrass (Brachiaria plantaginea), annual bluegrass (Poa annua), arrowleaf sida (Sida rhombifolia), barnyardgrass (Echinochloa crus-galli), bermudagrass (Cynodon dactylon), citrus (Citrus sinensis), common chickweed (Stellaria media), common purslane (Portulaca oleracea), common ragweed (Ambrosia elatior), common groundsel (Senecio vulgaris), dallisgrass (Paspalum dilatatum), goosegrass (Eleusine indica), green foxtail (Setaria viridis), guineagrass (Panicum maximum), itchgrass (Rottboellia exaltata), johnson grass (Sorghum halepense), kochia (Kochia scoparia), large crabgrass (Digitaria sanguinalis), leafy spurge (Euphorbia esula), pitted morningglory (Ipomoea lacunosa), purple nutsedge (Cyperus rotundus), quackgrass (Agropyron repens), Russian thistle (Salsola kali), sandbur (Cenchrus echinatus), sourgrass (Trichachne insularis), Spanishneedles (Bidens bipinnata), sugarcane (Saccharum officinarum), surinam grass (Brachiaria decumbens) and tall mallow (Malva sylvestris) were planted into greenhouse pots of flats containing greenhouse planting medium. Plant species were grown grown in separate pots or individual compartments. Preemergence applications were made within one day of planting the seed or plant part. Postemergence applications were applied when the plants were in the two to four leaf stage (three to twenty cm).
# (§3) Test chemicals were formulated in a non-phytotoxic solvent mixture which included a surfactant and applied preemergence to the soil surface, postemergence to the plants or as a post directed spray to plants and soil at the base of the target species. Untreated control plants and treated plants were placed in the greenhouse and visually evaluated for injury 13 to 21 days after herbicide application. Plant response ratings, summarized in Table E, are based on a 0 to 100 scale where 0 is no injury and 100 is complete control. A dash (−) response means no test result.
# [7] = system: sourgrass (Trichachne insularis); experiment: Test E pre-/postemergence/post directed; parameters: key: 0 is no effect; 100 is complete control; details: PREEMERGENCE
# Text: as §2, §3
# [8] = system: guineagrass (Panicum maximum); experiment: Test E pre-/postemergence/post directed; parameters: key: 0 is no effect; 100 is complete control; details: PREEMERGENCE
# Text: as §2, §3
# [9] = system: tall mallow (Malva sylvestris); experiment: Test E pre-/postemergence/post directed; parameters: key: 0 is no effect; 100 is complete control; details: PREEMERGENCE
# Text: as §2, §3
# [10] = system: common groundsel (Senecio vulgaris); experiment: Test E pre-/postemergence/post directed; parameters: key: 0 is no effect; 100 is complete control; details: PREEMERGENCE, Rate 250 g/ha
# Text: as §2, §3
# [11] = Preemergence, Rate 62 g/ha, scale of 0 to 10
structure (smiles),measurement,setting,value
Cc1cnc(-n2ccc(C(F)(F)F)n2)nc1C(=O)c1cccc(OC(F)(F)F)c1 [Compound 66],"Plant response rating, Wild oats",wild oat (Avena fatua); [11],2
same,Wild oats plant response rating,"wild oat (Avena fatua); Rate 62 g/ha, Postemergence",2
same,Wild oats plant response rating,"wild oat (Avena fatua); Rate 125 g/ha, Postemergence",2
same,"Plant response rating, Wild oats","wild oat (Avena fatua); Rate 125 g/ha, Preemergence",4
same,"Plant response rating, Wild oats","wild oat (Avena fatua); Rate 250 g/ha, Postemergence",2
same,"Plant response rating, Wild oats","wild oat (Avena fatua); Rate 250 g/ha, Preemergence",5
same,"Plant response rating, Wild oats","wild oat (Avena fatua); Rate 500 g/ha, Postemergence",3
same,"Plant response rating, Wild oats","wild oat (Avena fatua); Rate 500 g/ha, Preemergence",5
same,"Plant response rating, Crabgrass",[1]; [11],6
same,Crabgrass plant response rating,"[1]; Rate 62 g/ha, Postemergence",2
same,Crabgrass plant response rating,"[1]; Rate 125 g/ha, Postemergence",7
same,"Plant response rating, Crabgrass","[1]; Rate 125 g/ha, Preemergence",9
same,"Plant response rating, Crabgrass","[1]; Rate 250 g/ha, Postemergence",8
same,"Plant response rating, Crabgrass","[1]; Rate 250 g/ha, Preemergence",9
same,"Plant response rating, Crabgrass","[1]; Rate 500 g/ha, Postemergence",10
same,"Plant response rating, Crabgrass","[1]; Rate 500 g/ha, Preemergence",9
same,"Plant response rating, Blackgrass",[2]; [11],3
same,Blackgrass plant response rating,"[2]; Rate 62 g/ha, Postemergence",2
same,Blackgrass plant response rating,"[2]; Rate 125 g/ha, Postemergence",3
same,"Plant response rating, Blackgrass","[2]; Rate 125 g/ha, Preemergence",3
same,"Plant response rating, Blackgrass","[2]; Rate 250 g/ha, Postemergence",5
same,"Plant response rating, Blackgrass","[2]; Rate 250 g/ha, Preemergence",8
same,"Plant response rating, Blackgrass","[2]; Rate 500 g/ha, Postemergence",6
same,"Plant response rating, Blackgrass","[2]; Rate 500 g/ha, Preemergence",10
same,"Plant response rating, Soybean",soybean (Glycine max); [11],0
same,Soybean plant response rating,"soybean (Glycine max); Rate 62 g/ha, Postemergence",5
same,Soybean plant response rating,"soybean (Glycine max); Rate 125 g/ha, Postemergence",5
same,"Plant response rating, Soybean","soybean (Glycine max); Rate 125 g/ha, Preemergence",0
same,"Plant response rating, Soybean","soybean (Glycine max); Rate 250 g/ha, Postemergence",6
same,"Plant response rating, Soybean","soybean (Glycine max); Rate 250 g/ha, Preemergence",0
same,"Plant response rating, Soybean","soybean (Glycine max); Rate 500 g/ha, Postemergence",7
same,"Plant response rating, Soybean","soybean (Glycine max); Rate 500 g/ha, Preemergence",1
same,"Plant response rating, Nutsedge",[3]; [11],0
same,Nutsedge plant response rating,"[3]; Rate 62 g/ha, Postemergence",0
same,Nutsedge plant response rating,"[3]; Rate 125 g/ha, Postemergence",1
same,"Plant response rating, Nutsedge","[3]; Rate 250 g/ha, Postemergence",1
same,"Plant response rating, Nutsedge","[3]; Rate 500 g/ha, Postemergence",1
same,"Plant response rating, Nutsedge","[3]; Rate 500 g/ha, Preemergence",0
same,"Plant response rating, Purple nutsedge",[4]; Rate 35 g/ha,0
same,"Plant response rating, Purple nutsedge",[4]; Rate 70 g/ha,0
same,"Plant response rating, Purple nutsedge",[4]; Rate 140 g/ha,0
same,"Plant response rating, Lambsquarters",[5]; Rate 35 g/ha,0
same,"Plant response rating, Lambsquarters",[5]; Rate 70 g/ha,0
same,"Plant response rating, Lambsquarters",[5]; Rate 140 g/ha,100
Cc1cnc(-n2cnc(C(F)(F)F)n2)nc1C(=O)c1cccc(C(F)(F)F)c1 [Compound 67],"Plant response rating, Dallisgrass",[6]; Rate 32 g/ha,40
same,"Plant response rating, Dallisgrass",[6]; Rate 64 g/ha,70
same,"Plant response rating, Dallisgrass",[6]; Rate 125 g/ha,80
same,"Plant response rating, Dallisgrass",[6]; Rate 250 g/ha,100
same,"Plant response rating, Sourgrass",[7]; Rate 32 g/ha,98
same,"Plant response rating, Sourgrass",[7]; Rate 64 g/ha,100
same,"Plant response rating, Sourgrass",[7]; Rate 125 g/ha,100
same,"Plant response rating, Sourgrass",[7]; Rate 250 g/ha,100
same,"Plant response rating, Guineagrass",[8]; Rate 32 g/ha,80
same,"Plant response rating, Guineagrass",[8]; Rate 64 g/ha,100
same,"Plant response rating, Guineagrass",[8]; Rate 125 g/ha,100
same,"Plant response rating, Guineagrass",[8]; Rate 250 g/ha,100
same,"Plant response rating, Tall Mallow",[9]; Rate 32 g/ha,80
same,"Plant response rating, Tall Mallow",[9]; Rate 64 g/ha,90
same,"Plant response rating, Tall Mallow",[9]; Rate 125 g/ha,90
same,"Plant response rating, Tall Mallow",[9]; Rate 250 g/ha,98
same,"Plant response rating, Com. groundsel",[10],100
same,"Plant response rating, Wild oats",wild oat (Avena fatua); [11],3
same,Wild oats plant response rating,"wild oat (Avena fatua); Rate 62 g/ha, Postemergence",5
same,Wild oats plant response rating,"wild oat (Avena fatua); Rate 125 g/ha, Postemergence",7
same,"Plant response rating, Wild oats","wild oat (Avena fatua); Rate 125 g/ha, Preemergence",5
same,"Plant response rating, Wild oats","wild oat (Avena fatua); Rate 250 g/ha, Postemergence",8
same,"Plant response rating, Wild oats","wild oat (Avena fatua); Rate 250 g/ha, Preemergence",6
same,"Plant response rating, Wild oats","wild oat (Avena fatua); Rate 500 g/ha, Postemergence",8
same,"Plant response rating, Wild oats","wild oat (Avena fatua); Rate 500 g/ha, Preemergence",9
same,"Plant response rating, Crabgrass",[1]; [11],6
same,Crabgrass plant response rating,"[1]; Rate 62 g/ha, Postemergence",7
same,Crabgrass plant response rating,"[1]; Rate 125 g/ha, Postemergence",9
same,"Plant response rating, Crabgrass","[1]; Rate 125 g/ha, Preemergence",9
same,"Plant response rating, Crabgrass","[1]; Rate 250 g/ha, Postemergence",10
same,"Plant response rating, Crabgrass","[1]; Rate 250 g/ha, Preemergence",10
same,"Plant response rating, Crabgrass","[1]; Rate 500 g/ha, Postemergence",10
same,"Plant response rating, Crabgrass","[1]; Rate 500 g/ha, Preemergence",10
same,"Plant response rating, Blackgrass",[2]; [11],3
same,Blackgrass plant response rating,"[2]; Rate 62 g/ha, Postemergence",5
same,Blackgrass plant response rating,"[2]; Rate 125 g/ha, Postemergence",8
same,"Plant response rating, Blackgrass","[2]; Rate 125 g/ha, Preemergence",4
same,"Plant response rating, Blackgrass","[2]; Rate 250 g/ha, Postemergence",9
same,"Plant response rating, Blackgrass","[2]; Rate 250 g/ha, Preemergence",8
same,"Plant response rating, Blackgrass","[2]; Rate 500 g/ha, Postemergence",10
same,"Plant response rating, Blackgrass","[2]; Rate 500 g/ha, Preemergence",9
same,"Plant response rating, Soybean",soybean (Glycine max); [11],1
same,Soybean plant response rating,"soybean (Glycine max); Rate 62 g/ha, Postemergence",7
same,Soybean plant response rating,"soybean (Glycine max); Rate 125 g/ha, Postemergence",7
same,"Plant response rating, Soybean","soybean (Glycine max); Rate 125 g/ha, Preemergence",2
same,"Plant response rating, Soybean","soybean (Glycine max); Rate 250 g/ha, Postemergence",8
same,"Plant response rating, Soybean","soybean (Glycine max); Rate 250 g/ha, Preemergence",3
same,"Plant response rating, Soybean","soybean (Glycine max); Rate 500 g/ha, Postemergence",8
same,"Plant response rating, Soybean","soybean (Glycine max); Rate 500 g/ha, Preemergence",8
same,Nutsedge plant response rating,"[3]; Rate 62 g/ha, Postemergence",0
same,Nutsedge plant response rating,"[3]; Rate 125 g/ha, Postemergence",2
same,"Plant response rating, Nutsedge","[3]; Rate 250 g/ha, Postemergence",4
same,"Plant response rating, Nutsedge","[3]; Rate 500 g/ha, Preemergence",0
